Like-named read-outs stand apart in the source and are kept apart here.
Tests used:
[1] = target: T1, BSEP (Macaca fascicularis, UniProt D2CFL3); assay: in vitro; settings: monkey, hepatocytes in suspension, probe taurocholate
[2] = target: T2, BSEP (Canis lupus familiaris, UniProt B8K1W2); assay: Inhibition of BSEP activity (transport of taurocholate) in dog hepatocytes
T2 sequence (B8K1W2 1-1325): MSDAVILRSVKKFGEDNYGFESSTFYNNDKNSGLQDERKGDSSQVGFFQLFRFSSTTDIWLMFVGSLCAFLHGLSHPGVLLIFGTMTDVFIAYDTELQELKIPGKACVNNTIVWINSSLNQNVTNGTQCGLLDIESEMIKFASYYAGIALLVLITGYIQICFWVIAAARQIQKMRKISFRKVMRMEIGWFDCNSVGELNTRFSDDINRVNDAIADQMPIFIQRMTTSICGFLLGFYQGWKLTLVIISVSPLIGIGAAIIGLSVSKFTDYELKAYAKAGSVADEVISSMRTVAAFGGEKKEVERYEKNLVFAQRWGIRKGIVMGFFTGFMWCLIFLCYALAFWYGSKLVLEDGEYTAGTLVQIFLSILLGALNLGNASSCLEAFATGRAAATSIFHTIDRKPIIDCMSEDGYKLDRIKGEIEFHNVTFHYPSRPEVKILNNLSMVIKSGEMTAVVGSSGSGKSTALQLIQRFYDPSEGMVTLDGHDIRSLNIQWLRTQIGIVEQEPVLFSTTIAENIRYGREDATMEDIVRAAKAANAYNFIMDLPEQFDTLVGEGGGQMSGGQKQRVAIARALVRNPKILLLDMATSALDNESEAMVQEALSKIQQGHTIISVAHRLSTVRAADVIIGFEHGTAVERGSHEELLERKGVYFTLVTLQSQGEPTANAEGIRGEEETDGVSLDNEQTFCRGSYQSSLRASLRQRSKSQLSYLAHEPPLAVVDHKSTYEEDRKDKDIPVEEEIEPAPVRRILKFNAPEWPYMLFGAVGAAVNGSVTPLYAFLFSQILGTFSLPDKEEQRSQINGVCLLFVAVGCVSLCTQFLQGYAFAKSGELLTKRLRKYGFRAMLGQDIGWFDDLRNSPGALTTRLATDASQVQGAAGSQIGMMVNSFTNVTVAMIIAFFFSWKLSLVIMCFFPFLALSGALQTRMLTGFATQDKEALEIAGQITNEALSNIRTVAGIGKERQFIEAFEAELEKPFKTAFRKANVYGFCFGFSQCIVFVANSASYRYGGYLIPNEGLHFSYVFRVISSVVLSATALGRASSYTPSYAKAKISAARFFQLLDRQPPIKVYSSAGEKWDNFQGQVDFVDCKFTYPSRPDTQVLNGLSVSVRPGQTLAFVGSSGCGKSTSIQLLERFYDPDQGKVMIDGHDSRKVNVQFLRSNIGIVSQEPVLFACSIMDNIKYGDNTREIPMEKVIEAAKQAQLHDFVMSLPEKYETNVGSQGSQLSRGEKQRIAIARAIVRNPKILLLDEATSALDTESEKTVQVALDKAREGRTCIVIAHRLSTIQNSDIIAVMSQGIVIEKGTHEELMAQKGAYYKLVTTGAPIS

[3] = target: T3, BSEP (Rattus norvegicus, UniProt O70127); assay: IC50 for inhibition of BSEP activity in rat hepatocytes; format: cell-based
T3 sequence (O70127 1-1321): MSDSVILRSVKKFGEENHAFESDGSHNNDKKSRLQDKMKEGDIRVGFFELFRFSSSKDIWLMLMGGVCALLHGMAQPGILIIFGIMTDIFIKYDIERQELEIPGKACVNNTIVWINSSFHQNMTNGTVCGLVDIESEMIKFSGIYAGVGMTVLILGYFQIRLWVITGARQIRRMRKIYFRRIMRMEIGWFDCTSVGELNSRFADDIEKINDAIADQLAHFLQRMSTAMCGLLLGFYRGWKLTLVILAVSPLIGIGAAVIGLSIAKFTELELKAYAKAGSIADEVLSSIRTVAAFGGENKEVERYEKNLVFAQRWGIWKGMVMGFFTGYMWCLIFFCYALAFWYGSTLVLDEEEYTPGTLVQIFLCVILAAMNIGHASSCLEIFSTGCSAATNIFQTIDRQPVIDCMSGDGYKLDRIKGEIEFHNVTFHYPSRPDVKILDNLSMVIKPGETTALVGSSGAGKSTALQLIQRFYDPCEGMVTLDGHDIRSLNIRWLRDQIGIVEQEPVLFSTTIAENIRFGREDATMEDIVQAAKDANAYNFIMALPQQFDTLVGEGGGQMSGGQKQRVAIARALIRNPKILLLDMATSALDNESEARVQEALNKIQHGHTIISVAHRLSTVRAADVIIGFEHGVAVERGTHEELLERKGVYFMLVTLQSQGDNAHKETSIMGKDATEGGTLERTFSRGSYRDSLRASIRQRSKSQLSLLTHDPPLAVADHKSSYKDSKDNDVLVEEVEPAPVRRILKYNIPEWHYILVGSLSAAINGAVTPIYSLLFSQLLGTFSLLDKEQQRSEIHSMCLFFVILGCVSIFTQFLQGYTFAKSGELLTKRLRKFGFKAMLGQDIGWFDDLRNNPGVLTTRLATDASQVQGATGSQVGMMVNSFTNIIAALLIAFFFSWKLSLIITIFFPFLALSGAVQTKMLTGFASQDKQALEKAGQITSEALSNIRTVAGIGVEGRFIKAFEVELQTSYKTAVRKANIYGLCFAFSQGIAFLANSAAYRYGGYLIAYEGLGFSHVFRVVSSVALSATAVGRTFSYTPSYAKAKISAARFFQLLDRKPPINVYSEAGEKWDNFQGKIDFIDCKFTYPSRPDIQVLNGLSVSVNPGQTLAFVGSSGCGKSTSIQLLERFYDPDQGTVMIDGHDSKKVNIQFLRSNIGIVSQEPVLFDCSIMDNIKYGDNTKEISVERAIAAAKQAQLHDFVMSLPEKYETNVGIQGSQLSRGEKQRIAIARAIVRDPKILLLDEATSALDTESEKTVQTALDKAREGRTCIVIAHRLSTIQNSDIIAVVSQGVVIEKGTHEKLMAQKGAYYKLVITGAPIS
Experimental: (§1) Kinetic parameters were calculated using standard Michaelis-Menten kinetics. IC50 values were determined using Prism software (La Jolla, Calif.) or median-effect equation. [Chou et al., Theoretical basis, experimental design, and computerized simulation of synergism and antagonism in Drug Combination Studies. Pharmacological Reviews 58, 621, 2006]

[4] = target: T2, BSEP; assay: IC50 for inhibition of BSEP activity in dog hepatocytes; format: cell-based
Experimental: as §1

[5] = target: T1, BSEP; assay: IC50 for inhibition of BSEP activity in monkey hepatocytes; format: cell-based; settings: hepatocytes in suspension
Experimental: as §1

[6] = hepatocytes in suspension, probe taurocholate

T1 sequence (D2CFL3 1-1323): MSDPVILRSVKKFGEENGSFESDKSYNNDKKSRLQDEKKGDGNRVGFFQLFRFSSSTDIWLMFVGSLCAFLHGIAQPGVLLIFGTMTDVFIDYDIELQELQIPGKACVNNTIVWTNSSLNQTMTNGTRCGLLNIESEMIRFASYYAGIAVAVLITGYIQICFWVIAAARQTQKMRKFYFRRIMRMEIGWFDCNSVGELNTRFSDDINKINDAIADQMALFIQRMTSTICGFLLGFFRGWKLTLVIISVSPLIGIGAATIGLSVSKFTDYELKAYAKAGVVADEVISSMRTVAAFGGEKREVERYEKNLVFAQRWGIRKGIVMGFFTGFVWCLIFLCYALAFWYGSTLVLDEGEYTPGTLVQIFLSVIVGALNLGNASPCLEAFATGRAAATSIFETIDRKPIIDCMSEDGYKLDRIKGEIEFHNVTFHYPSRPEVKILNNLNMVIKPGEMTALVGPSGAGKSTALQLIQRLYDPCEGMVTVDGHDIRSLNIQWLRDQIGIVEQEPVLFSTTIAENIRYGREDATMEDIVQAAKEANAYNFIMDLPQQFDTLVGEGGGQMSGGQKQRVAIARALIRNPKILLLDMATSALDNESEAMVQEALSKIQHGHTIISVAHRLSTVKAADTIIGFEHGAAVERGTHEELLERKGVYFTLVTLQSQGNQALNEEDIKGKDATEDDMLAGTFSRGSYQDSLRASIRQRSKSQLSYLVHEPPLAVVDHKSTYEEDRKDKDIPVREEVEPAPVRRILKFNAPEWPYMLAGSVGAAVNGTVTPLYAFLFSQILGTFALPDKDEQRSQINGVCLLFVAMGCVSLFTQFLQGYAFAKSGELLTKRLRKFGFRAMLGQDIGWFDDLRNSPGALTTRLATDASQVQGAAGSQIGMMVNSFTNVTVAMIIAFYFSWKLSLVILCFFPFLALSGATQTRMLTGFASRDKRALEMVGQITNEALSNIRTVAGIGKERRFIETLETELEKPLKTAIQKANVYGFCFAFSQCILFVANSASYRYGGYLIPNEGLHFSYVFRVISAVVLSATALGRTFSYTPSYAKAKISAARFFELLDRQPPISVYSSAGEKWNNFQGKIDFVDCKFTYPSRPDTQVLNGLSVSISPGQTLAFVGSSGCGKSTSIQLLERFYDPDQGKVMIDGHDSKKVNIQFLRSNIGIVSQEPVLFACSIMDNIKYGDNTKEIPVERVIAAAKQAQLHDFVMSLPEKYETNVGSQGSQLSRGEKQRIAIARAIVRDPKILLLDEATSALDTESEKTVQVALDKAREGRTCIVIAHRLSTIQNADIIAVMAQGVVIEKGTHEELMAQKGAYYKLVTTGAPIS

| Structure (SMILES) | inhibition at 1 h, 1 μM [1] [%] | inhibition at 1 h, 10 μM [1] [%] | inhibition at 1 h, 1 μM [2, 6] [%] | inhibition at 1 h, 10 μM [2, 6] [%] | IC50 [3] [µM] | IC50 [4] [µM] | IC50 at 1 h [5] [µM] | inhibition at 1 h, 1 μM [2] [%] | inhibition at 1 h, 10 μM [2] [%] |
| --- | --- | --- | --- | --- | --- | --- | --- | --- | --- |
| COC(=O)N[C@H](C(=O)N[C@@H](Cc1ccccc1)[C@@H](O)CN(Cc1ccc(-c2ccccn2)cc1)NC(=O)[C@@H](NC(=O)OC)C(C)(C)C)C(C)(C)C [Atazanavir, atazanavir] | < 50 | > 50 | < 50 | > 50 |  |  |  |  |  |
| C[C@@H](Oc1cc(-c2cnn(C3CCNCC3)c2)cnc1N)c1c(Cl)ccc(F)c1Cl [Crizotinib, crizotinib] | < 50 | < 50 | < 50 | > 50 |  |  |  |  |  |
| OC(Cn1cncn1)(Cn1cncn1)c1ccc(F)cc1F [Fluconazole, fluconazole] | < 50 | < 50 | < 50 | < 50 |  |  |  |  |  |
| CC(=O)N1CCN(c2ccc(OCC3COC(Cn4ccnc4)(c4ccc(Cl)cc4Cl)O3)cc2)CC1 (centres unmarked) [Ketoconazole, ketoconazole] | < 50 | > 50 | < 50 | < 50 | > 10 | 1 to 10 | 1 to 10 |  |  |
| Cc1c(O)cccc1C(=O)N[C@@H](CSc1ccccc1)[C@H](O)CN1C[C@H]2CCCC[C@H]2C[C@H]1C(=O)NC(C)(C)C [Nelfinavir, nelfinavir] | < 50 | > 50 | < 50 | > 50 |  |  |  |  |  |
| CC(C)NCC(O)COc1cccc2ccccc12 (centres unmarked) [Propranolol, propranolol] | < 50 | < 50 | < 50 | < 50 |  |  |  |  |  |
| O=c1c(O)c(-c2ccc(O)c(O)c2)oc2cc(O)cc(O)c12 [Quercetin, quercetin] | < 50 | < 50 | < 50 | > 50 |  |  |  |  |  |
| C=C[C@H]1C[N@@]2CC[C@H]1C[C@@H]2[C@@H](O)c1ccnc2ccc(OC)cc12 [Quinidine, quinidine] | < 50 | < 50 | < 50 | < 50 |  |  |  |  |  |
| CO[C@H]1/C=C/O[C@@]2(C)Oc3c(C)c(O)c4c(O)c(c(/C=N/N5CCN(C)CC5)c(O)c4c3C2=O)NC(=O)/C(C)=C\C=C\[C@H](C)[C@H](O)[C@@H](C)[C@@H](O)[C@@H](C)[C@H](OC(C)=O)[C@@H]1C [Rifampicin] |  |  |  |  | 1 to 10 | > 10 | < 1 |  |  |
| S=P(N1CC1)(N1CC1)N1CC1 [Thiotepa, thiotepa] | < 50 | < 50 |  |  |  |  |  | < 50 | < 50 |
| Cc1c(C)c2c(c(C)c1O)CCC(C)(COc1ccc(CC3SC(=O)NC3=O)cc1)O2 (centres unmarked) [Troglitazone, troglitazone] | < 50 | > 50 | < 50 | > 50 | 1 to 10 | 1 to 10 | 1 to 10 |  |  |
| CC[C@]1(O)C[C@@H]2CN(CCc3c([nH]c4ccccc34)[C@@](C(=O)OC)(c3cc4c(cc3OC)N(C)[C@H]3[C@@](O)(C(=O)OC)[C@H](OC(C)=O)[C@]5(CC)C=CCN6CC[C@]43[C@@H]65)C2)C1 [Vinblastine, vinblastine] | < 50 | < 50 | < 50 | < 50 |  |  |  |  |  |

From US10481149B2
